From patent US20230240290A1, “USE OF (Z)-3-HEXENYL ESTERS AND METHOD FOR PROTECTING PLANTS AGAINST PESTS” (UNIVERSITAT POLITÈCNICA DE VALÈNCIA, priority 2020, published 2023)

Assays:
[1] = system: SI-PI-II (marker for plant proteinase inhibitors); test: Transcriptional response of SI-PI-II in tomato plants exposed to volatiles (laboratory); assay type: in vivo, Solanum lycopersicum cv. Moneymaker; settings: intact tomato plants exposed 24 h; filter paper, 1:10,000 ester:methanol; n=8
Protocol: Moneymaker tomato plants were used. Two weeks after seed germination, the seedlings were individually transplanted into pots (8×8×8 cm). The plants were kept at 25±2° C., with a constant relative humidity of 65%±5% and a 14:10 h (light:dark) photoperiod. Tomato plants that had not received any pesticide treatment at four weeks of age (about 20 cm tall) were used. All volatiles used were obtained from Sigma-Aldrich (St. Louis, Mo., USA). Each volatile was exposed by using a 2×2 cm piece of filter paper on which 10 μl of a solution containing the corresponding volatile at a concentration of 1:10,000 [(Z)-3-hexenyl ester:methanol] was impregnated as an emitting source of the corresponding volatile (Pérez-Hedo, M. et al. Biocontrol, 63: 203-213 (2018)).
To activate a plant, two pieces of filter paper impregnated with the volatile were placed at the bottom of a 30×30×30 cm plastic cage (BugDorm-1 Insect Tents; MegaView Science Co., Ltd, Taichung, Taiwan) into which the plant was introduced. A control treatment was carried out in which the two pieces of filter paper were impregnated with 10 μl of methanol. Eight repetitions per treatment were performed. The plants of the treatments were kept exposed to the volatile without disturbing for 24 hours in separate and isolated climatic chambers to avoid any interference from the volatiles and were kept at 25±2° C., 65±10% RH, and a 14:10 h (L:D) photoperiod. […]
The methodology followed for extracting and quantifying gene expression was described by Pérez-Hedo et al. Journal of Pest Science 3: 543-554 (2015). The primers used were forward primer: 5′-[…]-3′ (SEQ ID NO: 1) and reverse primer: 5′-[…]-3′ (SEQ ID NO: 2) for the quantification of PR1, forward primer: 5′-[…]-3′ (SEQ ID NO: 3) and reverse primer: 5′-[…]-3′ (SEQ ID NO: 4) for SI-PI-I, and forward primer: 5′-[…]-3′ (SEQ ID NO: 5) and reverse primer: 5′-[…]-3′ (SEQ ID NO: 6) for the SI-PI-II gene. […]

[2] = system: PIN2 (marker gene for the JA signaling pathway); test: Field (commercial greenhouse) assay, transcriptional response of PIN2 in tomato plants; assay type: in vivo, tomato cv Raf; settings: LD dispenser every 20 m2, at 30 and 60 days
Protocol: To know the behavior of the dispensers loaded with (Z)-3-hexenyl propionate under real cultivation conditions, four commercial greenhouses for tomato cv Raf located in Xilxes (Castellón province), with a history of problems with T. absoluta contamination at the end of winter, were selected. An experimental design of randomized blocks was carried out where each greenhouse was considered a block with two treatments per block and 4 repetitions per treatment. […]
Twenty plants randomly chosen by repetition were sampled weekly for 11 weeks, beginning 30 Jan. […] First, the number of leaflets infested by T. absoluta per plant was counted. Then the number of N. tenuis (adults and nymphs) throughout the apical third of each plant (leaves, flowers and shoots) was counted. Following the methodology described above, 6 samples were taken from the apical part of each plant per repetition, and these samples were immediately introduced into liquid nitrogen to quantify the expression of the PR1 and PIN2 genes (described in Example 1 and Example 2). The expression of these genes was quantified one day before, 4, and 8 weeks after hanging the dispensers in the greenhouses.

Question: With CC/C=C\CCOC(=O)CC [(Z)-3-hexenyl propanoate] as the molecule, how does the “Transcriptional response of SI-PI-II compared to the control” value [1] read?
Answer: significantly overexpressed

Question: And the “Expression of PIN2 compared to plants in the control zone” value [2]?
Answer: significantly higher
